Test results as given in article PMC5934680, “A new class of antibacterials, the imidazopyrazinones, reveal structural transitions involved in DNA gyrase poisoning and mechanisms of resistance” (Nucleic Acids Research, 2018).

Legend:
[1] = target: T1, Escherichia coli wt gyrase (Escherichia coli, UniProt P0AES4+P0AES6); format: biochemical; conditions: 8 mM EDTA, no ATP; disappearance of linear double-strand cleavage
Procedure: (§1) A total of 500 ng of relaxed pBR322 plasmid was used as a substrate for each 30 μl reaction.
Figure 6.

[2] = target: T2, wild-type E. coli DNA gyrase (Escherichia coli, UniProt P0AES4+P0AES6); assay: biochemical; conditions: relaxed pBR322 substrate, read-out: Supercoiling IC50
Procedure: (§2) Supercoiling reactions were carried out as described previously ([24]) with minor adjustments. A total of 500 ng of relaxed pBR322 plasmid was used as a substrate for each 30 μl reaction. The amount of DNA gyrase (A2B2) added was normalized by testing various dilutions of the stock (A2B2 containing 0.5 mg/ml of each subunit) without compound. The amount sufficient to supercoil 50% of the substrate was then used for the testing of compounds. See Supplementary Figure S1 for details. This ensured a limiting amount of enzyme for every mutant tested. The individual gyrase subunits were either prepared in the lab as described previously ([25]) or purchased from Inspiralis.

[3] = target: E. coli DNA gyrase GyrA mutant EcS83L (Escherichia coli, UniProt P0AES4+P0AES6, S83L); assay: Supercoiling inhibition assay, GyrA EcS83L mutant gyrase; format: biochemical; conditions: for Resistance of EcS83L mutant enzyme in supercoiling inhibition: EcS83L compared to wt
Procedure: as §2
(§3) The activity of tricyclic and bicyclic IPYs (Figure 1) was tested in a supercoiling inhibition assay (Table 1) on wild-type (wt) E. coli DNA gyrase and GyrA mutants EcS83L (SaS84), EcD87A (SaE88) and EcD82N (SaD83). These residues are located in the ‘Quinolone-Resistance-Determining-Region’, frequently found mutated in resistant clinical isolates ([18],[35–38]). Based on the structures solved of FQs bound to DNA gyrase and topo IV, it has been established that both residues EcS83 and EcD87 are involved in a water–metal–ion bridge that is important for the stabilization of the ternary complex, explaining the resistance to FQs observed when these residues are mutated ([15–16],[23],[29],[39]).

[4] = target: T1, Escherichia coli wt gyrase; format: biochemical; conditions: 25°C, presence vs absence of ATP
Procedure: The reactions were carried out either in the presence or absence of ATP for both compounds.
The top panels show the results of cleavage assays with various times allowed for the formation of the cleavage complexes as indicated. The experiment was performed in the presence and the absence of ATP as indicated. […] Approximately 400 ng of A2B2Escherichia coli wt gyrase was used in each assay.

[5] = target: T2, wild-type E. coli DNA gyrase; format: biochemical; conditions: purified E. coli DNA gyrase, linear plasmid DNA
Procedure: as §1

[6] = target: E. coli DNA gyrase GyrA mutant EcD82N (Escherichia coli, UniProt P0AES4+P0AES6, D82N); assay: Supercoiling inhibition assay, GyrA EcD82N mutant gyrase; format: biochemical
Procedure: as §2, §3

ΔTolC E. coli = tested on: ΔTolC E. coli; design: method as in Jeannot et al. In revision in J Med Chem; conditions: ref Jeannot et al. In revision in J Med Chem; cited from earlier work
[7] = target: E. coli DNA gyrase GyrA mutant EcD87A (Escherichia coli, UniProt P0AES4+P0AES6, D87A); assay: Supercoiling inhibition assay, GyrA EcD87A mutant gyrase; format: biochemical
Procedure: as §2, §3

Compound | Resealing of stabilized cleavage by EDTA [1] | IC50 [2] [µM] | IC50 [3] [µM] | Increase in supercoiling IC50 with EcS83L mutant compared to wt ([3]; EcS83L vs wild-type) [fold] | Effect of ATP on rate of appearance of linear DNA (cleavage) [4] | Level of double-stranded cleavage induced [5] | IC50 [6] [µM] | Antibacterial activity ranking on ΔTolC E. coli (ΔTolC E. coli) | IC50 [7] [µM] | Resistance of EcS83L mutant enzyme in supercoiling inhibition [3] | Resistance of EcD82N mutant enzyme in supercoiling inhibition ([6]; EcD82N compared to wt) | Resistance of EcD87A mutant enzyme in supercoiling inhibition ([7]; EcD87A compared to wt)
N[C@H]1CCN(c2cc3c(cc2F)n2ccnc2c(=O)n3C2CC2)C1 [t1] | slower | 0.5 | 3.7 | ~7 | greatly stimulated | comparable to those obtained with ciprofloxacin | 9.4 | most active tricyclic IPY | 0.5 | – | – | –
N[C@H]1CCN(c2cc3c(cc2F)n2ncnc2c(=O)n3C2CC2)C1 [t2] | – | 1.7 | 9.5 | – | – | – | 4 to 20 | – | 1.7 | partial resistance | high resistance | low to no resistance
O=C(Cc1ccccc1)Nc1ccc(-c2cn(-c3ccc(O)cc3)c(=O)c3nccn23)cc1 [b1, N-{4-[7-(4-hydroxyphenyl)-8-oxo-7,8-dihydroimidazo[1,2-a]pyrazin-5-yl]phenyl}-2-phenylacetamide] | – | 2.6 | 1 | – | – | – | – | – | – | improved activity toward the EcS83L mutant enzyme compared to the wt | – | –
Cn1cc(-c2ccc(NC(=O)Cc3ccc(Cl)cc3)cc2)n2ccnc2c1=O [b2] | – | 5.2 | 11 | – | – | – | – | – | – | less active against EcS83L | – | –
